Test results reported in patent US20220054448A1, “NOVEL POLYMETH[…] FOR SKELETAL MUSCLE MODULATION, METHODS AND USES THEREOF” (SOCIETE DES PRODUITS NESTLE S.A., priority 2018, published 2022).

Tested on: Muscle Stem Cells
Experiment: In vivo muscle regeneration after intramuscular cardiotoxin injury
Conditions: mouse, oral gavage 100 mg/kg body weight once a day from one week before cardiotoxin injury; muscles harvested 5 days after injury; versus water control
Experimental: FIG. 5—In Vivo Muscle Regeneration: Measurement of Early Phase Expansion and Differentiation of Muscle Stem Cells
Early phase of expansion and subsequent phase of myogenic differentiation of Muscle Stem Cells were evaluated.
Data are expressed as number of cells per area of injured muscle.
The size of each newly formed myofiber has been measured based on the expression of the eMHC and laminin that allow to recognize and delineate these nascent myofibers. Results are shown as mean myofiber cross-sectional area (μm^2).
In order to reproduce the physiological process of muscle regeneration that occurs in adult skeletal muscles in response to injury or disease, we performed an intramuscular injection of cardiotoxin into mouse hindlimb muscles. One week prior to the induction of the muscle injury, mice were given by oral gavage compounds of the invention; either cirsimaritin or xanthomicrol at 100 mg/kg body weight and water was used as a control. […] Several myogenic markers were then measured. […]
In particular, this is shown be the early phase of expansion evaluated by counting the number of Pax7+ cells shown in FIG. 5A and the subsequent phase of myogenic differentiation of Muscle Stem Cells measured by counting the number of myogenin+ cells shown in FIG. 5B, respectively. Data were expressed as number of cells per arear of injured muscle. […]

SMILES | in vivo muscle regeneration process (number of Pax7+ cells, number of myogenin+ cells, size of newly formed myofibers)
COc1c(OC)c(O)c2c(=O)cc(-c3ccc(O)cc3)oc2c1OC [Xanthomicrol, 5,4′-Dihydroxy-6,7,8-trimethoxyflavone] | promote the in vivo muscle regeneration process
COc1cc2oc(-c3ccc(O)cc3)cc(=O)c2c(O)c1OC [Cirsimaritin, 5,4′-Dihydroxy-6,7-dimethoxyflavone] | promote the in vivo muscle regeneration process
